Measured values published in patent publication US8497075B2, “Methods of identifying a modulator that inhibits the binding between Epstein-Barr virus induced receptor 2 and cholesterol derived ligands” (Novartis AG, priority 2008, dated 2013).

System: 26 GPCR binding assays, 9 GPCR functional assays, 40 kinase assays, ion channels, proteases, transporter and enzyme assays
Settings: data not shown
Excerpt: So far oxysterols have been noted to have various physiological activities namely regulate the expression of genes that participate in both sterol and fat metabolism, serve as substrates for the synthesis of bile acids, and are intermediates in the transfer of sterols from the periphery to the liver (Russell, D. W. (2000). Oxysterol biosynthetic enzymes. Biochim. Biophys. Acta 1529, 126-135). […] This included binding assays for 26 different GPCRs, functional assays of 9 different GPCRs, 40 kinase assays, as well as selected ion channels, proteases, transporter and enzyme assays.

SMILES: C[C@H](CCCC(C)(C)O)[C@H]1CC[C@H]2[C@@H]3[C@H](O)C=C4C[C@@H](O)CC[C@]4(C)[C@H]3CC[C@]12C [7a,25DHC, cholest-5-ene-3b,7a,25-triol]
- interaction in safety panel: In none of these assay did we see a significant interaction
